{"source": "paper PMC9330537", "about": "“DCLK1 promotes colorectal cancer stemness and aggressiveness via the XRCC5/COX2 axis” (Theranostics, 2022)", "molecular_target": "T1, DCLK1 (Doublecortin-like kinase 1) (Homo sapiens, UniProt O15075)", "T1 sequence (O15075 1-740)": "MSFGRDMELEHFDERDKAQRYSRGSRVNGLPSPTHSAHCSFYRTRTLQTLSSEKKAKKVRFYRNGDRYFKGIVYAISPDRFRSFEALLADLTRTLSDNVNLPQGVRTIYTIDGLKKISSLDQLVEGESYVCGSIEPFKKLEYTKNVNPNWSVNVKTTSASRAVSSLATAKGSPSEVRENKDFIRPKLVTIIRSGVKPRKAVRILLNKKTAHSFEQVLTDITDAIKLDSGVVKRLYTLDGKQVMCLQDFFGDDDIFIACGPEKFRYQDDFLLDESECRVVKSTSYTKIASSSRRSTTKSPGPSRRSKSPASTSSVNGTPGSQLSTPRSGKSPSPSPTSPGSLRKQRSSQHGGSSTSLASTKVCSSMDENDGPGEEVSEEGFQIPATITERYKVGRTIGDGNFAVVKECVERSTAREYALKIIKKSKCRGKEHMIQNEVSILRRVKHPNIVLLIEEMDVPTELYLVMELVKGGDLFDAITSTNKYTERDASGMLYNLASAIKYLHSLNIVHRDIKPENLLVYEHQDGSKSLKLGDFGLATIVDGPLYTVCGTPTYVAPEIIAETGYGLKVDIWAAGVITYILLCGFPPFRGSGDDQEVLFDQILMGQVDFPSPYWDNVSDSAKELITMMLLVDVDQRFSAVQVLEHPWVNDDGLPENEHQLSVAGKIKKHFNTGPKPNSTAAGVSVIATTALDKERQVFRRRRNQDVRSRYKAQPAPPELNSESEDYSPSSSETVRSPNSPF", "test": "DCLK1 kinase activity assay, dose response", "assay_type": "biochemical", "note": "pIC50: −log10 of the molar value."}
{"compound": "COc1cc(N2CCN(C)CC2)ccc1Nc1ncc2c(n1)N(C)c1ccccc1C(=O)N2CC(F)(F)F", "note": "[DCLK1-IN-1]", "values": [{"measurement": "pIC50", "value": 6.84}]}
